According to patent US8501772B2, “3,8-diaminotetrahydroquinoline derivative” (Zeria Pharmaceutical Co., Ltd., priority 2008, dated 2013):
Counter-ions that a name gives are not always drawn. Each block holds one molecule with its values, some of them ahead of it.

Key:
[1] = Bioavailability in male rats; type: in vivo; details: rat, plasma, oral, intravenous 1 or 3 mg/kg, peroral 30 mg/kg, n=3, read-out: bioavailability (BA)
Procedure: (§1) A test compound was administered to male rats intravenously (1 or 3 mg/kg) or perorally (30 mg/kg), and to male beagles intravenously or perorally (3 mg/kg). After administration, blood was collected at designated times, to thereby obtain plasma samples.

beagles = test: Toxicity test: single oral administration to dogs; type: in vivo; details: male beagles, single peroral
Procedure: An encapsulated test drug was forcedly administered to beagles, and acute toxicity of the drug was studied.
Compound of Example 34a was singly perorally administered to male beagles at a dose of 30 and 100 mg/kg. […] General conditions of the beagles were observed, and hematologic and blood biochemical tests were carried out.

[2] = test system: model rats with IL-1β-induced cachexia; test: Improvement of cachexia induced by IL-1β; type: in vivo; details: SD rats, rmIL-1β into cerebral ventricle, peroral 100 mg/kg
Source text: By use of model rats with IL-1β-induced cachexia, the effects of a test compound on ameliorating reduction in body weight and in food intake were examined.
SD rats (male, 8-week old, 270 to 340 g, Japan Charles River) were conditioned in a cage (one rat/cage), and were allowed water and a diet (CRF-1, product of Oriental Yeast Co., Ltd.) ad libitum. The illumination conditions employed in the house were as follows: 10:30 to 22:30 (dark) and 22:30 to 10:30 (light).
An osmotic pump (Mini-Osmotic Pump Model 2001, product of ALZET, filled with saline) was connected to a canula, and the canula was inserted into the cerebral ventricle of a rat. The rats obtained were conditioned for three days, and the osmotic pump was changed to another osmotic pump filled with recombinant mouse IL-1β (rmIL-1β). By means of the pump, rmIL-1β was continuously injected into the cerebral ventricle ([…]), to thereby induce cachexia. Two days after starting of injection of IL-1β, a test compound dissolved in 0.5% methylcellulose solution was perorally administered to each rat just before switching-off the light. During the period of administration of the test compound, the body weight and the food intake were measured every 24 hours.

[3] = Bioavailability in male beagles; type: in vivo; details: beagle, dog, plasma, po; male beagles (dogs), intravenous or peroral 3 mg/kg, n=3; read-out: bioavailability (BA)
Procedure: as §1

CYP3A4 = target: T1, CYP3A4 (Homo sapiens, UniProt P08684); test: CYP3A4 inhibitory activity, human liver microsomes, midazolam hydroxylation; type: in vitro ADME
T1 construct: determined by use of human liver microsomes based on the midazolam hydroxylation activity as an index; from tissue; host or cells: human liver microsomes
T1 sequence (P08684 whole entry): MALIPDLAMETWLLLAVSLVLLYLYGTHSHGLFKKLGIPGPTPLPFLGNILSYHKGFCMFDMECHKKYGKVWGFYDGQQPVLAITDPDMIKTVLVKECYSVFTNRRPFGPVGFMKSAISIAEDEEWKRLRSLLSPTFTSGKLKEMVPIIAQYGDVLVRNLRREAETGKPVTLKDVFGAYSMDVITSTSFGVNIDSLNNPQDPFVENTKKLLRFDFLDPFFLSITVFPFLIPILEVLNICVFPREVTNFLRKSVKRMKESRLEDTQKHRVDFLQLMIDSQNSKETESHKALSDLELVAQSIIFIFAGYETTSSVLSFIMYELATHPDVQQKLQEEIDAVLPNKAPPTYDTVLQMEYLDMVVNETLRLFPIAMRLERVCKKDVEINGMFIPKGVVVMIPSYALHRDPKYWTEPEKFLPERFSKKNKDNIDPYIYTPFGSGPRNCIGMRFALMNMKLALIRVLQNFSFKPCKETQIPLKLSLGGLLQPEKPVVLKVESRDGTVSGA
Procedure: The in vitro CYP3A4 inhibitory activity was determined by use of human liver microsomes based on the midazolam hydroxylation activity as an index, and the Ki values were calculated.

human GHS-R1a = target: T2, human GHS-R1a (Homo sapiens, UniProt Q92847); test: Agonistic activity by use of a cell line stably expressing human GHS-R1a (intracellular calcium increase); type: cell-based; details: hGHS-R1a/CHO cells, percent increase in intracellular calcium vs 100 nM ghrelin; read-out: GHS-R agonistic activity (EC50: nM)
T2 construct: expressed in transfected cells
T2 sequence (Q92847 whole entry): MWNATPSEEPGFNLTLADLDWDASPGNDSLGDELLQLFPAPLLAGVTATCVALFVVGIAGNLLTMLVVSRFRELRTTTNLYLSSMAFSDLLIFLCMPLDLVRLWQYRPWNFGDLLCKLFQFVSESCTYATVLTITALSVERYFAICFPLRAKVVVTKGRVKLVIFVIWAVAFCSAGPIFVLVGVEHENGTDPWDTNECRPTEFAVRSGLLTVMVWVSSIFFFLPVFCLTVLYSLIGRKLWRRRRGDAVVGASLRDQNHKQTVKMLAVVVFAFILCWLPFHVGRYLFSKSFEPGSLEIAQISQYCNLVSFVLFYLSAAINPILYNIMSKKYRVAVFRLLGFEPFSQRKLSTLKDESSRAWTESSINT
Procedure: CHO-K1 cells were transfected with human GHS-R1a genes, to thereby provide cells stably expressing GHS-R1a (hGHS-R1a/CHO), and the agonistic activity of each compound was evaluated by use of the cells based on percent increase in intracellular calcium as an index.
The hGHS-R1a/CHO cells were inoculated at 6×10^4 cells/well in a 96-well plate (Clear bottom/Black plate, product of Corning), and cultured in Ham's F12 medium containing 10% fetal bovine serum at 37° C. and 5% CO2 for 18 hours. After culture, the medium was removed, and then the hGHS-R1a/CHO cells were cultured for two hours in a Hanks' balanced salt solution/HEPES (HBSS/HEPES, 100 μL) containing a calcium fluorescent indicator (4 μM Fluo-3AM, product of Dojin), 2 mM Probenecid, 0.1% Pluronic F-127, and 0.1% BSA, whereby the indicator was incorporated into the cells. After washing the cells, HBSS/HEPES (175 μL/well) containing 2 mM Probenecid and 0.1% BSA was added to the plate, and the fluorescence before and after addition of each test compound was determined by means of FLEXstation (Ex: 485 nm, Em: 525 nm, product of Molecular Devices). Each test compound was multi-fold diluted with dimethyl sulfoxide and then diluted with HBSS/HEPES containing 2 mM Probenecid, 0.04% Pluronic F-127, and 0.1% BSA, to thereby attain a final concentration of interest. The thus-diluted solution (25 μL/well) was added to the wells.
Agonistic activity(%)=(A−B)/(C−D)×100
A: Fluorescence intensity after addition of test compound
B: Fluorescence intensity before addition of test compound
C: Fluorescence intensity after addition of 100 nM ghrelin
D: Fluorescence intensity before addition of ghrelin

[4] = Distribution in the brain (brain-to-plasma partition coefficient); type: in vivo; details: rat, male rats, intravenous bolus then constant-rate infusion, steady state
Procedure: Under anesthesia, a test drug was intravenously administered to male rats (1 to 4 mg/kg) and then intravenously administered (14 to 95 μg/kg) at a constant rate. At two hours after starting the infusion, when a steady state was thought to have been reached, the whole blood was collected from each rat and the brain was excised. The concentrations of test drug in brain samples and plasma samples were determined using LC-MS/MS, and the brain-to-plasma partition coefficient (Kp value) was calculated (n=6 or 9).

Structure (SMILES): CC(C)C[C@@H](NC(=O)C(C)(C)N)C(=O)NC1Cc2cccc(N3CCCC3=O)c2N(Cc2ccsc2)C1=O (stereo partly drawn) [Example 34a, (2R)-2-(2-amino-2-methylpropanamido)-4-methyl-N-[2-oxo-8-(2-oxopyrrolidin-1-yl)-1-(thiophen-3-ylmethyl)-1,2,3,4-tetrahydroquinolin-3-yl]pentanamide hydrochloride]
bioavailability [1]: 35% | acute toxicity, general conditions (beagles; maximum dose 100 mg/kg): only slight vomiting | reduction in body weight caused by IL-1β [2]: significantly suppressed | reduction in food intake caused by IL-1β [2]: significantly suppressed | bioavailability [3]: 84% | Ki (CYP3A4): 86000 nM | EC50 (human GHS-R1a): 0.38 nM | Kp at 2 h [4]: 0.06

EC50 (human GHS-R1a): 4.13 nM
Structure (SMILES): CC[C@](C)(N)C(=O)N[C@H](CC(C)C)C(=O)NC1Cc2cccc(N3CCCC3=O)c2N(Cc2ccsc2)C1=O (stereo partly drawn) [Example 25j, (2R)-2-((S)-2-amino-2-methylbutanamido)-4-methyl-N-[2-oxo-8-(2-oxopyrrolidin-1-yl)-1-(thiophen-3-ylmethyl)-1,2,3,4-tetrahydroquinolin-3-yl]pentanamide]

Structure (SMILES): CN(C)N(C)C(=O)[C@@]1(Cc2ccccc2)CCCN(C(=O)[C@@H](Cc2c[nH]c3ccccc23)NC(=O)C(C)(C)N)C1 [Anamorelin hydrochloride, anamorelin hydrochloride, reference compound]
bioavailability [1]: 21% | acute toxicity, general conditions (beagles; 30 mg/kg): serious anomalous disorders in general conditions such as vomiting, infrequent pulse, tremble, and disorders in walking | bioavailability [3]: 19% | EC50 (human GHS-R1a): 0.15 nM | Kp at 2 h [4]: 0.42

EC50 (human GHS-R1a): 1.5 nM
Structure (SMILES): CC(C)C[C@@H](NC(=O)C(C)(C)N)C(=O)NC1Cc2cccc(N3CCCC3=O)c2N(Cc2cccs2)C1=O (stereo partly drawn) [Example 34m, (2R)-2-(2-amino-2-methylpropanamido)-4-methyl-N-[2-oxo-8-(2-oxopyrrolidin-1-yl)-1-(thiophen-2-ylmethyl)-1,2,3,4-tetrahydroquinolin-3-yl]pentanamide hydrochloride]

Structure (SMILES): CC(C)C[C@@H](NC(=O)C(C)(C)N)C(=O)NC1Cc2cccc(N3CCCC3=O)c2N(Cc2ccsc2)C1=O (stereo partly drawn) [Example 34l, (2R)-2-(2-amino-2-methylpropanamido)-4-methyl-N-[2-oxo-8-(2-oxopyrrolidin-1-yl)-1-(thiophen-3-ylmethyl)-1,2,3,4-tetrahydroquinolin-3-yl]pentanamide(S)-(+)-mandelate]
EC50 (human GHS-R1a): 0.37 nM

EC50 (human GHS-R1a): 18.2 nM
Structure (SMILES): CCN(CC)c1cccc2c1N(Cc1ccccn1)C(=O)C(NC(=O)[C@@H](CC(C)C)NC(=O)CC(C)(C)N)C2 (stereo partly drawn) [Example 47, (2R)-2-(3-Amino-3-methylbutanamido)-N-[8-(diethylamino)-2-oxo-1-(pyridin-2-ylmethyl)-1,2,3,4-tetrahydroquinolin-3-yl]-4-methylpentanamide hydrochloride]

EC50 (human GHS-R1a): 0.1 nM
Structure (SMILES): CC(C)(N)C(=O)N[C@H](Cc1c[nH]c2ccccc12)C(=O)NC1Cc2cccc(N3CCCC3=O)c2N(Cc2ccccc2)C1=O (stereo partly drawn) [Example 38, 2-Amino-N-[(2R)-1-[1-benzyl-2-oxo-8-(2-oxopyrrolidin-1-yl)-1,2,3,4-tetrahydroquinolin-3-ylamino]-3-(1H-indol-3-yl)-1-oxopropan-2-yl]-2-methylpropanamide hydrochloride]

EC50 (human GHS-R1a): 0.02 nM
Structure (SMILES): CCn1cc(C[C@@H](NC(=O)C(C)(C)N)C(=O)NC2Cc3cccc(N4CCCC4=O)c3N(Cc3ccsc3)C2=O)c2ccccc21 (stereo partly drawn) [Example 34c, 2-amino-N-[(2R)-3-(1-ethyl-1H-indol-3-yl)-1-oxo-1-[2-oxo-8-(2-oxopyrrolidin-1-yl)-1-(thiophen-3-ylmethyl)-1,2,3,4-tetrahydroquinolin-3-ylamino]propan-2-yl]-2-methylpropanamide hydrochloride]
